Consider 4 compounds from patent US7074961B2, “Antidepressants and their analogues as long-acting local anesthetics and analgesics” (The Brigham and Women's Hospital, Inc., priority 2000, dated 2006).

Assay [1] has as its system rat sciatic nerve. In words: Rat sciatic nerve blockade with neurobehavioral examination (proprioception, motor function, nocifensive reaction). The conditions noted are these: for Development of sciatic nerve blockade after injection: all rats. It counts as in vivo. From the text: Male Sprague-Dawley rats were purchased from Taconic Farm, Inc., Germantown, N.Y., and kept in animal housing facilities with controlled humidity (20-30% relative humidity), room temperature, and a 12-h (6:00 AM-6:00 PM) light-dark cycle. Rats were handled before behavioral testing to familiarize them with the experiment and to minimize stress-induced analgesia. At the time of injections, animals weighed approximately 250-300 g. The experimenter was blinded to the drug/concentration used.
For sciatic nerve blockade, rats were lightly anesthetized by inhalation of sevoflurane and the landmarks (greater trochanter and ischial tuberosity) of the left hind limb were localized. […] The right hind limb was used as a control.
Neurobehavioral examination consisted of evaluation of motor function, proprioception, and nocifensive reaction immediately before inhalation of sevoflurane, at 2, 4, 6, 8, 10, 15, 20, 25, 30, 45, and 60 minutes after the injection, and then at 30-minute intervals until 750 minutes (12.5 hours). The following is a brief description of the neurobehavioral examination.
Motor function. Motor function was evaluated by measuring the “extensor postural thrust” of the hind limbs. The rat was held upright with the hind limb extended so that the body's weight was supported by the distal metatarsus and toes. The extensor thrust was measured as the gram force applied to a digital platform balance (Ohaus Lopro, Fisher Scientific, Florham Park, N.J.), the force that resists contact of the platform by the heel. The preinjection control value (range 130-165 gram) was considered 0% of the maximal possible effect (MPE). The reduction in this force, representing reduced extensor muscle contraction due to motor blockade, was calculated as a percentage of the control force. A force less than 20 grams (also referred to as weight of the “flaccid limb”) was considered 100% MPE.
Proprioception. Proprioception evaluation was based on resting posture and postural reactions (“tactile placing” and “hopping”). The functional deficit was graded as 3 (normal) or 0% MPE, 2 (slightly impaired), 1 (severely impaired), and 0 (complete) or 100% MPE. Keeping the rat in a normal resting posture with the toes flexed and the dorsi of the feet placed on the supporting surface, we evaluated tactile placing as the ability to reposition the toes.
Hopping response was evoked by lifting the front half of the animal off the ground and then lifting one hind limb at a time off the ground so that the animal moved laterally. This process normally evokes a prompt hopping with the weight-bearing limb in the direction of movement to avoid falling over. A predominantly motor impairment causes a prompt but weaker than normal response. Conversely with a predominantly proprioceptive blockade, delayed hopping is followed by greater lateral hops to avoid falling over or, in case of full blockade, no hopping at all.
Nocifensive reaction. Nocifensive reaction was evaluated by the withdrawal reflex and/or vocalization to pinch of a skin fold over the lateral metatarsus (cutaneous pain) and of the distal phalanx of the fifth toe (deep pain). Nocifensive reaction was graded 4 (normal or 0% MPE), 3 (25% MPE), 2 (50% MPE), 1 (75% MPE), and 0 (absent or 100% MPE).

In assay [2] the test system is Na+ channels. Put plainly: Whole-cell voltage clamp of Na+ currents in GH3 cells. It is filed as cell-based, rat. Conditions: for Use-dependent (additional) blockade of Na+ currents: 3 μM, high-frequency stimulation at 5 Hz, 60 pulses; for Na+ channels blocked in the inactivated state / Na+ channels blocked in the resting state: 10 μM; for Na+ channels blocked in the inactivated state: conditioning pulse of −60 mV; for Na+ channels blocked in the inactivated state / Na+ channels blocked in the resting state / IC50: GH3 cells; for Na+ channels blocked in the resting state: conditioning pulse of −150 mV; for Time to complete washout: all concentrations and all protocols. The protocol:
The whole-cell configuration of the patch-clamp technique was used to record macroscopic Na^+ currents at room temperatures ranging from 21 to 23 degrees Celsius. Command voltages were controlled by pCLAMP software (Axons Instruments, Inc., Foster City, Calif.) and delivered by a List-EPC7 patch clamp amplifier (List-Electronic, Darmstadt/Eberstadt, Germany). After the establishment of whole-cell configuration, cells were dialyzed for 30 minutes before data were acquired. Data were filtered at 5 kHz, sampled at 50 kHz, collected, and stored with pCLAMP software. Leak and capacitance currents were subtracted by P/4 protocol, which was not applied in the use-dependent block of Na^+ currents. Pipette electrodes were filled with an internal solution containing (in mM) 100 NaF, 30 NaCl, 10 ethylene glycol-bis(β-aminoethylether)N,N,N′,N′-tetraacetic acid (EGTA), and 10 hydroxyethylpiperazineethane sulfonic acid (HEPES) titrated with CsOH to pH 7.2. The external solution consisted of (in mM) 85 choline Cl, 65 NaCl, 2 CaCl2, and 10 HEPES titrated with tetramethylammoniumhydroxide to pH 7.4. Rat clonal pituitary GH3 cells were purchased from the American Type Culture, Collection (Rockville, Md.). Cells were split twice a week and maintained in Dulbecco's modified Eagle's medium supplemented with penicillin/streptomycin (1%) and heat-inactivated fetal bovine serum (10%). The 35 mm-culture dishes in which the cells were grown were also used as a recording chamber. To determine the voltage-dependent blockade by amitriptyline or bupivacaine, a prepulse or conditioning pulse at various voltages and long enough to permit the drug-channel binding interaction to reach its steady-state level was applied (pulse protocol and representative tracings are shown in FIG. 4A). In order to determine the potency of amitriptyline and bupivacaine for the resting and inactivated states, dose-response curves were subsequently constructed at holding potentials of −150 mV and −60 mV, respectively (FIG. 5). Finally, additional blockade provoked by high-frequency stimulation (use dependent blockade) was investigated (pulse protocol and representative tracings are shown in FIG. 6A).

The conditions of assay [3]: reportedly; cited from earlier work.
[4] abbreviates: holding potential −60 mV, read-out: 50% inhibitory concentration (IC50), inactivated state.
Where [5] appears, read: holding potential −150 mV, read-out: 50% inhibitory concentration (IC50), resting state.
Where [6] appears, read: single injection at 5 mM into the rat sciatic notch.

Each structure is given as a SMILES string. Several values for one entry are separate records, joined by “and”; a condition that tells them apart may be missing. Equal values may be shown once. Read-outs that look alike come from different tables or passages of the source.

Regarding `CN(C)CCC=C1c2ccccc2CCc2ccccc21` [amitriptyline], in assay [1] (5 mM), the “Duration of complete blockade, motor” value was 168.7 ± 7.9 min; the “Duration of complete blockade, nociception” value came out at 217.5 ± 19.4 min; the “Time to full recovery of function, motor function” value (from here on “Time … motor function”) is 270 ± 13.9 min; the “Time to full recovery of function, nociception” value came to 352.5 ± 12.4 min. For the same compound, the “Time to full recovery of function, proprioception” value (from here on “Time … of function, proprioception”) in assay [1] (5 mM) came to 255.0 ± 11.3 min. Further, in assay [1] (10 mM), the “Duration of complete blockade, motor” value amounted to 402.9 ± 27.7 min; the “Duration of complete blockade, nociception” value is 454.8 ± 38.4 min and 454.3 ± 38.4 min; the “Duration of complete blockade, proprioception” value was 467.1 ± 35.8 min; the “Time … motor function” value amounted to 582.6 ± 32.6 min. Also, in assay [1] (10 mM), the “Time to full recovery of function, nociception” value is 655.7 ± 27.3 min and the “Time … of function, proprioception” value turned out to be 578.6 ± 39.7 min. Also, the “Onset: time to full nociceptive, motor and proprioceptive blockade” value (“Onset: time to full nociceptive” for short) in assay [1] (0.2 ml 5 mM at sciatic nerve) stood at 30 min. Moreover, in assay [1] (0.2 ml 10 mM at sciatic nerve), the “Onset: time to full nociceptive” value is 6 min. Besides, the “Development of sciatic nerve blockade after injection” value in assay [1] is “complete sciatic nerve blockade”. Further, in assay [2], the “Use-dependent (additional) blockade of Na+ currents” value is recorded as about 50%, the “Na+ channels blocked in the inactivated state” value is on record as over 95%, the “Na+ channels blocked in the resting state” value is given as about 15% and the “Time to complete washout” value is listed as at most 5 min. Moreover, in assay [2] (setting [4]), the IC50 is 0.9 ± 0.1 µM. In addition, the IC50 in assay [2] (setting [5]) amounted to 141 ± 4.4 µM. Also, in assay [2] (−60 mV), the “Hill coefficient, inactivated state” value was 1.35±0.15 and the “Potency relative to bupivacaine, inactivated state” value is about 10 ×. Also, in assay [2] (−150 mV), the “Hill coefficient, resting state” value is on record as 1.56±0.03 and the “Potency relative to bupivacaine, resting state” value was about 15 ×.

Consider `CCCCN1CCCCC1C(=O)Nc1c(C)cccc1C` (centres unmarked) [bupivacaine], for which the “Duration of major nerve block” value in assay [3] was “three to twelve”. Moreover, in assay [1] (15.4 mM), the “Duration of complete blockade, motor” value came to 87.5 ± 14.7 min; the “Duration of complete blockade, nociception” value amounted to 90 ± 13.4 min; the “Duration of complete blockade, proprioception” value came out at 90 ± 13.4 min; the “Time … motor function” value turned out to be 160.0 ± 6.3 min. In addition, the “Time … of function, proprioception” value in assay [1] (15.4 mM) was 155.0 ± 9.2 min. Besides, the “Onset: time to full nociceptive” value in assay [1] (0.2 ml 15.4 mM at sciatic nerve) came to 4 min. In assay [2], the “Use-dependent (additional) blockade of Na+ currents” value was about 14%, the “Na+ channels blocked in the inactivated state” value is reported as over 70%, the “Na+ channels blocked in the resting state” value is given as “essentially none” and the “Time to complete washout” value is reported as at most 3 min. Moreover, the IC50 in assay [2] (setting [4]) amounted to 9.5 ± 0.6 µM. The IC50 in assay [2] (setting [5]) is 9.5 ± 0.6 µM. In assay [2] (−60 mV), the “Hill coefficient, inactivated state” value was found to be 1.16±0.08. Further, the “Hill coefficient, resting state” value in assay [2] (−150 mV) amounted to 1.12±0.04.

`C[N+](C)(C)CC/C=C1\c2ccccc2COc2ccccc21` [N-methyl doxepin, N-methyl doxepin bromide]: in assay [1] (5 mM, pH 7.4), the “Duration for complete blockage of motor” value stood at 5.0 ± 0.5 h, the “Duration for complete blockage of nociception” value was 5.3 ± 0.3 h, the “Duration for complete blockage of proprioception” value worked out at 5.0 ± 0.5 h and the “Time to reach full recovery of motor” value is 10.3 ± 0.2 h. Also, in assay [1] (5 mM, pH 7.4), the “Time to reach full recovery of nociception” value was 9.9 ± 0.2 h and the “Time to reach full recovery of proprioception” value was 9.5 ± 0.3 h. Also, the “Development of sciatic nerve blockade after injection” value in assay [1] is “complete sciatic nerve blockade”.

Turning to `C[N+](C)(CCC=C1c2ccccc2CCc2ccccc21)CCc1ccccc1.[Br-]` [N-phenyl-ethyl amitriptyline, N-phenyl-ethyl amitriptyline bromide], the “Extension of duration of complete nerve block over parent drug” value in assay [1] (5 mM, 5 vs. 70 hrs) is on record as “more than 10 fold”. In assay [1] (setting [6]), the “Duration of complete sciatic nerve block” value fell in the range of 70 to 80 h and the “Full recovery of function” value was in the range of 5 to 6 days. Moreover, the “Inhibition of sodium channels in vitro” value in assay [2] is “strong tonic and use-dependent inhibition”.
